Assay results published in patent US20230416249A1, “N-[2-({4-[3-(ANILINO)-4-OXO-4,5,6,7-TETRAHYDRO-1H-PYRROLO[3,2-C]PYRIDIN-2-YL]PYRIDIN-3-YL)OXY)ETHYL]PROP-2-ENAMIDE DERIVATIVES AND SIMILAR COMPOUNDS AS EGFR INHIBITORS FOR THE TREATMENT OF CANCER” (Bayer Aktiengesellschaft, priority 2020, published 2023).

Key:
Ba/F3-EGFR-insSVD cells = Ba/F3-EGFR-insSVD cells (Homo sapiens, UniProt P00533, DUP768-770, cells depend on it); assay: Ba/F3 cell survival assay (Cell Titer-Glo), EGFR-insSVD; format: cell-based; conditions: 48 h, without IL-3, 10 ng/mL EGF; read-out: BA/F3 (insSVD) IC50
Chain of Ba/F3-EGFR-insSVD cells (P00533 with tags, fused parts or gaps DUP768-770): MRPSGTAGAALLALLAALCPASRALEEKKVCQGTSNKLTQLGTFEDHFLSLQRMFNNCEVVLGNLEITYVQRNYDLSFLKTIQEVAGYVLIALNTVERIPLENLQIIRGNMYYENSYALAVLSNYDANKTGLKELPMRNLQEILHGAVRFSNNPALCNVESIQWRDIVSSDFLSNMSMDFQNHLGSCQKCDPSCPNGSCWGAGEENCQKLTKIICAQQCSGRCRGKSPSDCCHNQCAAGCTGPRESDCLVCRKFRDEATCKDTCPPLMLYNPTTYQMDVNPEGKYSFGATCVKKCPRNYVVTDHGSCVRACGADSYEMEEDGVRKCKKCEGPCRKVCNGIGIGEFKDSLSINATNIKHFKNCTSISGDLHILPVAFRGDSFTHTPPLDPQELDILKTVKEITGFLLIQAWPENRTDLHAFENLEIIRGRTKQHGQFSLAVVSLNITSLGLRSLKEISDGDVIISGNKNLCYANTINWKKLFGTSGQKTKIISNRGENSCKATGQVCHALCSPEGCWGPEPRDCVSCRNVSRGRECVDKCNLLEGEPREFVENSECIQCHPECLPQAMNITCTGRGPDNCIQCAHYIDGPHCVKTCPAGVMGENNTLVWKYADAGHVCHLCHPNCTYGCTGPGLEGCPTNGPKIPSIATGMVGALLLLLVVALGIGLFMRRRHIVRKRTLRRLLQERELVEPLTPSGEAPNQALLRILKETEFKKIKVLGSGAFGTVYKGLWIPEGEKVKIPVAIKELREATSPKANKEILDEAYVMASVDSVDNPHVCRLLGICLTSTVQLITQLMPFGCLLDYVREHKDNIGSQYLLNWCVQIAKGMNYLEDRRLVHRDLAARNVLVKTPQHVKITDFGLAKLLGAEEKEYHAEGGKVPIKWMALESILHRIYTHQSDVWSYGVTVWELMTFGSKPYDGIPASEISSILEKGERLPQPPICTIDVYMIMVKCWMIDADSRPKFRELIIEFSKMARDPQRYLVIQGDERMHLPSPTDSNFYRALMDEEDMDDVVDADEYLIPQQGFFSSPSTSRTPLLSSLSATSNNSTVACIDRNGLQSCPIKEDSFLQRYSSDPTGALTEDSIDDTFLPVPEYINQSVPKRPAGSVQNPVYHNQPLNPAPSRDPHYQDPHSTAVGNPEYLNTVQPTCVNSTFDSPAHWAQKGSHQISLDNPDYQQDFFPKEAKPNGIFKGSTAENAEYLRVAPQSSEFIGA
Procedure: (§1) 293T cells from ATCC were transfected with pBABEpuro expression constructs for WT EGFR or EGFR-insSVD, or EGFR-insSVD T790M, and pCL-Eco packaging vector using Fugene-6 transfection reagent from Promega. Plates were incubated at 37° C. for 48 h. Retrovirus was harvested by filtering the media supernatant through a 0.45 μm filter.
(§2) Ba/F3 cells purchased from DSMZ were grown in RPMI+10% FBS+10 ng/mL IL-3 and infected with filtered retroviral supernatant at a 1:2 dilution. Polybrene was added to a concentration of 8 μg/mL, plates were spun for 90 min, and incubated for 16 h at 37° C. 2 μg/mL puromycin was added to the infected cells 24 h after infection and cells were continually grown in the presence of puromycin and 10 ng/mL IL-3. Following stably expressing Ba/F3 cell lines were generated: Ba/F3-EGFR-WT, Ba/F3-EGFR-insSVD, Ba/F3-EGFR-insSVD T790M, (Ba/F3—vector-control).
(§3) For cell survival assays, Ba/F3 cells were grown to a density of 1-2 million cells per mL, spun down and resuspended in media without IL-3, and replated at a concentration 200,000-500,000 cells per mL. The cells ectopically expressing WT EGFR, EGFR-insSVD, or EGFR-insSVD T790M were plated with 10 ng/mL Millipore Culture grade EGF. The cells ectopically expressing pBABEpuro empty vector were plated with 10 ng/mL IL-3.
(§4) 2 days later, cells were plated in 50 μL in a 384 well plate at a concentration of 4000 cells per well for cells assayed in the absence of IL-3 and 2000 cells per well for cells assayed in the presence of IL-3. 100 nL of compound was added to each well using a 100 nL pin head, and plates were incubated at 37° C. for 48 h.
(§5) Cell viability was measured by adding 20 μL of Cell Titer-Glo Luminescent Cell Viability Reagent diluted 1:3 in PBS. Plates were sealed with Perkin Elmer Top-Seal, inverted several times to mix, and immediately centrifuged at 1000 rpm for 2 min. Plates were incubated in low light conditions for 8-10 min and luminescence was measured.

[1] = biological target: T1, mutEGFR (D770_N771insSVD) (Homo sapiens, UniProt P00533, DUP768-770); assay: Exon20-Mutant-EGFR(D770_N771insSVD) kinase assay (TR-FRET); format: biochemical; conditions: GST-EGFR ins SVD, 2 mM ATP, 15 min pre-incubation
T1 construct: GST-EGFR #3 (SVD between D770 and N771); made in house; host or cells: Sf9 insect cells (baculovirus)
T1 sequence (P00533 with tags, fused parts or gaps DUP768-770): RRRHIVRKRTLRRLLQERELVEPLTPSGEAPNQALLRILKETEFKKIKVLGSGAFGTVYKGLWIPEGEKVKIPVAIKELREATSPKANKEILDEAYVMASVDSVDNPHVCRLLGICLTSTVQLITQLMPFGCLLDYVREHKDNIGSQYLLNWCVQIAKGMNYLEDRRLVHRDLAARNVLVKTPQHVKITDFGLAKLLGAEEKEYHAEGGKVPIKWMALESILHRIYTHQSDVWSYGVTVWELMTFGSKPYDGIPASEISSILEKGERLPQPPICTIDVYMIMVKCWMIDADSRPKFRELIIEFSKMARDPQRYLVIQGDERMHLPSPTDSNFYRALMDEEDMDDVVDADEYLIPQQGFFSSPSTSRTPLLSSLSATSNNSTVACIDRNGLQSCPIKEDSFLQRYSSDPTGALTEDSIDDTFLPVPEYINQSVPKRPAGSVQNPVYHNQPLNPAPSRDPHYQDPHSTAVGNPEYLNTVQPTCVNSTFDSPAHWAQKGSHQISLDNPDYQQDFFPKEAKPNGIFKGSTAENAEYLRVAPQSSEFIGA
Excerpt: Inhibitory activity of compounds of the present invention against an Epidermal Growth Factor Receptor (EGFR) with an insertion of the amino acids sequence SVD between D770 and N771 was quantified employing the TR-FRET based kinase activity assay as described in the following paragraphs.
A recombinant fusion protein of N-terminal Glutathion-S-Transferase (GST) and a fragment of human EGFR variant (amino acids R669 to A1210 with insertion of the amino acids sequence SVD between D770 and N771 (“EGFR ins SVD”), expressed in Sf9 insect cells and purified via affinity chromatography using Glutathion Sepharose as described above, was used as a kinase. As substrate for the kinase reaction the biotinylated peptide biotin-Ahx-AEEEEYFELVAKKK (SEQ ID NO: 6) (C-terminus in amide form) was used which can be purchased e.g. form the company Biosynthan GmbH (Berlin-Buch, Germany).
For the assay 50 nl of a 100-fold concentrated solution of the test compound in DMSO was pipetted into either a black low volume 384 well microtiter plate or a black 1536 well microtiter plate (both Greiner Bio-One, Frickenhausen, Germany), 2 μl of a solution of EGFR in aqueous assay buffer [50 mM Hepes pH 7.0, 10 mM MgCl2, 1 mM dithiothreitol, 0.5 mM EGTA, 0.3 mM activated sodium ortho-vanadate, 0.005% (w/v) bovine serum albumin, 0.005% (v/v) Tween-20] were added and the mixture was incubated for 15 min at 22° C. to allow pre binding of the test compounds to the enzyme before the start of the kinase reaction. Then the kinase reaction was started by the addition of 3 μL of a solution of adenosine tri phosphate (ATP, 3.33 mM=>final conc. in the 5 μL assay volume is 2 mM) and substrate (1.67 μM=>final conc. in the 5 μL assay volume is 1 μM) in assay buffer and the resulting mixture was incubated for a reaction time of 30 min at 22° C. The concentration of EGFR was adjusted depending of the activity of the enzyme lot and was chosen appropriate to have the assay in the linear range, typical concentration was 15 pg/μl. The reaction was stopped by the addition of 3 μl of a solution of HTRF detection reagents (83.3 nM streptavidine-XL665 [Cisbio Bioassays, Codolet, France] and 1.67 nM PT66-Tb-Cryptate, a terbium-cryptate labelled anti-phospho-tyrosine antibody from Cisbio Bioassays [instead of the PT66 Tb cryptate PT66 Eu Chelate from Perkin Elmer can also be used]) in an aqueous EDTA-solution (133.3 mM EDTA, 0.2% (w/v) bovine serum albumin in 50 mM HEPES pH 7.5).
The resulting mixture was incubated 1 h at 22° C. to allow the binding of the biotinylated phosphorylated peptide to the streptavidine-XL665 and the PT66-Tb-Cryptate. Subsequently the amount of phosphorylated substrate was evaluated by measurement of the resonance energy transfer from the PT66-Tb-Cryptate to the streptavidine-XL665. Therefore, the fluorescence emissions at 620 nm and 665 nm after excitation at 337 nm were measured in a HTRF reader, e.g. a Pherastar (BMG Labtechnologies, Offenburg, Germany) or a Viewlux (Perkin-Elmer). The ratio of the emissions at 665 nm and at […] was taken as the measure for the amount of phosphorylated substrate. The data were normalised (enzyme reaction without inhibitor=0% inhibition, all other assay components but no enzyme=100% inhibition).

[2] = biological target: Ba/F3-EGFR-L858R T790M cells (Homo sapiens, UniProt P00533, T790M/L858R, cells depend on it); assay: Ba/F3 cell survival assay (Cell Titer-Glo), EGFR-L858R T790M; format: cell-based; conditions: 48 h, without IL-3, 10 ng/mL EGF; read-out: BA/F3 (L858R T790M) IC50
Chain of Ba/F3-EGFR-L858R T790M cells (P00533 whole entry T790M/L858R): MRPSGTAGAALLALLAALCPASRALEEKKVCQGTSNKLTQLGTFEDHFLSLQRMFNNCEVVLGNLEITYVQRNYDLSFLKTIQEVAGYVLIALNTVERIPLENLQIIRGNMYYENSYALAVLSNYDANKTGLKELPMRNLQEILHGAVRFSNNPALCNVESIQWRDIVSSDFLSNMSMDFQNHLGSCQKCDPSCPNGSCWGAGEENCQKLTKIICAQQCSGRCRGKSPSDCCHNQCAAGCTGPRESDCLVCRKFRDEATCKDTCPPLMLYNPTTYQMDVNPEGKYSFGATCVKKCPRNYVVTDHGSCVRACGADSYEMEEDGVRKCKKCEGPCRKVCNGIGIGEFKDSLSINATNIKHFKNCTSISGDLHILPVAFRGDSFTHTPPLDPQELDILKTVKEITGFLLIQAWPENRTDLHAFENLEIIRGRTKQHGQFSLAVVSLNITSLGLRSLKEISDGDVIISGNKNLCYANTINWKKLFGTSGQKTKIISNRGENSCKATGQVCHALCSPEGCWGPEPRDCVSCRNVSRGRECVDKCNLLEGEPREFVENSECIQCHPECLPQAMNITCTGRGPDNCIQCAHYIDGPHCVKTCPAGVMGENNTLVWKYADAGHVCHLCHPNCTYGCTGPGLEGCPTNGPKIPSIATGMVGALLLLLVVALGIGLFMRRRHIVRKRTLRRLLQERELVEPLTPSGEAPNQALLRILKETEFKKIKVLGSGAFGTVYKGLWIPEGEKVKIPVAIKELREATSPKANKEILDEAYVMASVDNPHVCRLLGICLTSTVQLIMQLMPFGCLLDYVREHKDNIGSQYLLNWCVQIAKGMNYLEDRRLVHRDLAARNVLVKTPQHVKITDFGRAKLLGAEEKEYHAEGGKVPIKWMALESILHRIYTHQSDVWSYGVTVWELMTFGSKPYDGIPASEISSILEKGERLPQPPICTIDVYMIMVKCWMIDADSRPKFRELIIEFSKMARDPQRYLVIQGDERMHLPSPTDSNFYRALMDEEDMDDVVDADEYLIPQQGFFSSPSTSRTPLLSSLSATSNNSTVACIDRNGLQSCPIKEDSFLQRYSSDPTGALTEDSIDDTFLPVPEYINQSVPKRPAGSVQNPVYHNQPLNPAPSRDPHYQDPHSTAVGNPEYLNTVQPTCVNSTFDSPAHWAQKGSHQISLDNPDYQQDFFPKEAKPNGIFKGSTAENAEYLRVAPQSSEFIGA
Procedure: as §1, with “EGFR-L858R, EGFR-E746_A750del, EGFR-L858R T790M,” for “WT EGFR”, “EGFR-E746_A750del” for “EGFR-insSVD, or EGFR-insSVD”
as §2, with “Ba/F3-EGFR-L858R, Ba/F3-EGFR-E746_A750del, Ba/F3-EGFR-L858R” for “Ba/F3-EGFR-WT, Ba/F3-EGFR-insSVD, Ba/F3-EGFR-insSVD”, “or Ba/F3-EGFR-E746_A750del T790M.” for “(Ba/F3—vector-control).”
as §3, with “EGFR-L858R, EGFR-E746_A750del, EGFR-L858R T790M,” for “WT EGFR, EGFR-insSVD,”, “EGFR-E746_A750del” for “EGFR-insSVD”
as §4, §5

[3] = biological target: Ba/F3-EGFR-E746_A750del T790M cells (Homo sapiens, UniProt P00533, DEL746-750/T790M, cells depend on it); assay: Ba/F3 cell survival assay (Cell Titer-Glo), EGFR-E746_A750del T790M; format: cell-based; conditions: 48 h, without IL-3, 10 ng/mL EGF; read-out: BA/F3 (E746_A750del T790M) IC50
Chain of Ba/F3-EGFR-E746_A750del T790M cells (P00533 with tags, fused parts or gaps DEL746-750/T790M): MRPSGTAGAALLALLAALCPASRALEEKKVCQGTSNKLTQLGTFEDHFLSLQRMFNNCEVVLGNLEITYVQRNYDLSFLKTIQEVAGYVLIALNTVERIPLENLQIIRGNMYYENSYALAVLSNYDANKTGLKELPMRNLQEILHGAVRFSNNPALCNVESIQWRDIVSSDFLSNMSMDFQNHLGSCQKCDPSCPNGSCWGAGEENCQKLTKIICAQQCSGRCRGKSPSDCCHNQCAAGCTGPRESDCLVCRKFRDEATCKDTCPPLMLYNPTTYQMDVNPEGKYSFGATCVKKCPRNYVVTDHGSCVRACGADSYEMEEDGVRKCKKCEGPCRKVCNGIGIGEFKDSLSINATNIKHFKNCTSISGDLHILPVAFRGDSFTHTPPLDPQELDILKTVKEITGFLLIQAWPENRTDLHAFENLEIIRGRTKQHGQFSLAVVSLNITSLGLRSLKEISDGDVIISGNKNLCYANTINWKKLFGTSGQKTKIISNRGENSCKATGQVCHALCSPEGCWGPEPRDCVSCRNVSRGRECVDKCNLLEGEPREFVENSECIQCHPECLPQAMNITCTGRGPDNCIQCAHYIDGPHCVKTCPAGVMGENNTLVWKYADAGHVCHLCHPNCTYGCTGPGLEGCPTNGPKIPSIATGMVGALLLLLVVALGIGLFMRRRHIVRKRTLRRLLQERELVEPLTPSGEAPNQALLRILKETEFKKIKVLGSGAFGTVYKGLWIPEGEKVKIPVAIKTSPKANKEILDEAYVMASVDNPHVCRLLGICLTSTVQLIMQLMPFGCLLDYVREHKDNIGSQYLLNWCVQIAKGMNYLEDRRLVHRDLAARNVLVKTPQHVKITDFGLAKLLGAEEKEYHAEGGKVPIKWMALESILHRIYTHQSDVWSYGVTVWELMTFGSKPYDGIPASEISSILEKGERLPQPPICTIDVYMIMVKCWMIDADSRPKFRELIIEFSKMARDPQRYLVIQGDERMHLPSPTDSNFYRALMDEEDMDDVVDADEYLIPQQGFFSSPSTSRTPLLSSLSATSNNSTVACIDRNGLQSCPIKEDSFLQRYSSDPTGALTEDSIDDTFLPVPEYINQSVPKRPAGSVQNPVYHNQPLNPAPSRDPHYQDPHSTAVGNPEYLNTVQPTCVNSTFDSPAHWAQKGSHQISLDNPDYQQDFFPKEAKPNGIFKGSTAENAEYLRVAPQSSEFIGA
Procedure: as §1, with “EGFR-L858R, EGFR-E746_A750del, EGFR-L858R T790M,” for “WT EGFR”, “EGFR-E746_A750del” for “EGFR-insSVD, or EGFR-insSVD”
as §2, with “Ba/F3-EGFR-L858R, Ba/F3-EGFR-E746_A750del, Ba/F3-EGFR-L858R” for “Ba/F3-EGFR-WT, Ba/F3-EGFR-insSVD, Ba/F3-EGFR-insSVD”, “or Ba/F3-EGFR-E746_A750del T790M.” for “(Ba/F3—vector-control).”
as §3, with “EGFR-L858R, EGFR-E746_A750del, EGFR-L858R T790M,” for “WT EGFR, EGFR-insSVD,”, “EGFR-E746_A750del” for “EGFR-insSVD”
as §4, §5

Ba/F3-EGFR-WT cells = Ba/F3-EGFR-WT cells (Homo sapiens, UniProt P00533); assay: Ba/F3 cell survival assay (Cell Titer-Glo), WT EGFR; format: cell-based; conditions: 48 h, without IL-3, 10 ng/mL EGF; read-out: BA/F3 (wild type) IC50
Procedure: as §1, §2, §3, §4, §5

Compound | GI50 (Ba/F3-EGFR-insSVD cells) [nM] | IC50 [1] [nM] | GI50 [2] [nM] | GI50 [3] [nM] | GI50 (Ba/F3-EGFR-WT cells) [nM]
COc1c(Cl)cccc1Nc1c(-c2ccncc2OCCN(C)C(=O)/C=C/CN(C)C)[nH]c2c1C(=O)NC1(CCC1)C2 [Example 10, (2E)-N-[2-({4-[3′-(3-chloro-2-methoxyanilino)-4′-oxo-1′,4′,5′,7′-tetrahydrospiro[cyclobutane-1,6′-pyrrolo[3,2-c]pyridin]-2′-yl]pyridin-3-yl}oxy)ethyl]-4-(dimethylamino)-N-methylbut-2-enamide] | 205 | 3.55 | > 1000 | 651 | 1660
C=CC(=O)N(C)CCOc1cnccc1-c1[nH]c2c(c1Nc1cccc(Cl)c1OC)C(=O)NC1(CCC1)C2 [Example 11, N-[2-({4-[3′-(3-chloro-2-methoxyanilino)-4′-oxo-1′,4′,5′,7′-tetrahydrospiro[cyclobutane-1,6′-pyrrolo[3,2-c]pyridin]-2′-yl]pyridin-3-yl}oxy)ethyl]-N-methylprop-2-enamide] | 12.2 | 0.464 | 198 | 25.8 | 309
C=CC(=O)N(C)CCOc1cnccc1-c1[nH]c2c(c1Nc1cccc(Cl)c1OC)C(=O)NC(C)(C)C2 [Example 12, N-[2-({4-[3-(3-chloro-2-methoxyanilino)-6,6-dimethyl-4-oxo-4,5,6,7-tetrahydro-1H-pyrrolo[3,2-c]pyridin-2-yl]pyridin-3-yl}oxy)ethyl]-N-methylprop-2-enamide] | 17.7 | 0.583 | 276 | 47.4 | 330
C=CC(=O)N(C)CCOc1cnccc1-c1[nH]c2c(c1Nc1ccccc1OC(F)F)C(=O)NCC2 [Example 14, N-(2-{[4-(3-{[2-(difluoromethoxy)phenyl]amino}-4-oxo-4,5,6,7-tetrahydro-1H-pyrrolo[3,2-c]pyridin-2-yl)pyridin-3-yl]oxy}ethyl)-N-methylprop-2-enamide] | 35.4 | 0.571 | 397 | 29.1 | 652
